# Data from patent publication US9440946B2, “N-phenethylcarboxamide derivatives” (BAYER INTELLECTUAL PROPERTY GMBH, priority 2005, dated 2016).
# Key:
# [1] = tested on: Alternaria brassicae; assay: In vivo test on Alternaria brassicae (leaf spot of crucifers), preventive spray on radish plants; details: radish plants (Pernot variety), contaminated 24 hours after treatment, grading 6 to 7 days after contamination vs control plants, read-out: protection (good, at least 70%, or total); for pest or weed control at 330 ppm: dose of 330 ppm; for pest or weed control at 500 ppm: dose of 500 ppm
# Procedure: (§1) The active ingredients tested are prepared by homogenization in a mixture of acetone/tween/DMSO, then diluted with water to obtain the desired active material concentration.
# Radish plants (Pernot variety), sown on a 50/50 peat soil-pozzolana substrate in starter cups and grown at 18-20° C., are treated at the cotyledon stage by spraying with the active ingredient prepared as described above.
# (§2) Plants, used as controls, are treated with the mixture of acetone/tween/DMSO/water not containing the active material.
# After 24 hours, the plants are contaminated by spraying them with an aqueous suspension of Alternaria brassicae spores (40,000 spores per cm^3). The spores are collected from a 12 to 13 days-old culture.
# The contaminated radish plants are incubated for 6-7 days at about 18° C., under a humid atmosphere.
# Grading is carried out 6 to 7 days after the contamination, in comparison with the control plants.
# [2] = tested on: Pyrenophora teres; assay: In vivo test on Pyrenophora teres (barley net blotch), preventive spray on barley plants; details: 288 h, barley plants (Express variety), contaminated 24 hours after treatment, grading 12 days after contamination vs control plants, read-out: protection (good, at least 70%, or total); for pest or weed control at 330 ppm: dose of 330 ppm
# Procedure: as §1
# Barley plants (Express variety), sown on a 50/50 peat soil-pozzolana substrate in starter cups and grown at 12° C., are treated at the 1-leaf stage (10 cm tall) by spraying with the active ingredient prepared as described above. Plants, used as controls, are treated with the mixture of acetone/tween/DMSO/water not containing the active material.
# After 24 hours, the plants are contaminated by spraying them with an aqueous suspension of Pyrenophora teres spores (12,000 spores per ml). The spores are collected from a 12-day-old culture. The contaminated barley plants are incubated for 24 hours at about 20° C. and at 100% relative humidity, and then for 12 days at 80% relative humidity.
# Grading is carried out 12 days after the contamination, in comparison with the control plants.
# [3] = tested on: Botrytis cinerea; assay: In vivo test on Botrytis cinerea (cucumber grey mould), preventive spray on gherkin plants; details: gherkin plants (Vert petit de Paris variety), contaminated 24 hours after treatment, grading 5/7 days after contamination vs control plants, read-out: protection (good, at least 50%, or total); for pest or weed control at 500 ppm: dose of 500 ppm; for pest or weed control at 330 ppm: dose of 330 ppm
# Procedure: The active ingredients tested are prepared by homogenization in a mixture of acetone/tween/DMSO, then diluted with water to obtain the desired active material
# Gherkin plants (Vert petit de Paris variety), sown on a 50/50 peat soil-pozzolana substrate in starter cups and grown at 18-20° C., are treated at the cotyledon Z11 stage by spraying with the active ingredient prepared as described above.
# as §2
# After 24 hours, the plants are contaminated by depositing drops of an aqueous suspension of Botrytis cinerea spores (150,000 spores per ml) on upper surface of the leaves. The spores are collected from a 15-day-old culture and are suspended in a nutrient solution composed of: • 20 g/L of gelatin • 50 g/L of cane sugar • 2 g/L of NH4NO3 • 1 g/L of KH2PO4
# The contaminated cucumber plants are settled for 5/7 days in a climatic room at 15-11° C. (day/night) and at 80% relative humidity.
# Grading is carried out 5/7 days after the contamination, in comparison with the control plants. Under these conditions, good (at least 50%) or total protection is observed: • at a dose of 500 ppm with the following compounds: C-1, D-12, G-8 and I-1; and • at a dose of 330 ppm with the following compounds: G-2, G-5, G-6 and G11.
SMILES,pest or weed control at 330 ppm [1],pest or weed control at 330 ppm [2],further results
COc1ccc(OC)c(CCNC(=O)c2cn(C)nc2C(F)F)c1 [Compound G-7],≥ 70%,–,–
Cc1ccc(C)c(CCNC(=O)c2cn(C)nc2C(F)(F)F)c1 [Compound G-17],≥ 70%,–,–
Cc1ccsc1C(=O)NCCc1ccc(Cl)cc1Cl [Compound A-2],–,–,pest or weed control at 500 ppm [1]: ≥ 70%
COc1ccccc1CCNC(=O)c1cn(C)nc1C(F)F [Compound G-4],≥ 70%,≥ 70%,–
Cc1nc(C(F)(F)F)c(C(=O)NCCc2c(Cl)cccc2Cl)s1 [Compound D-4],≥ 70%,–,–
O=C(NCCc1ccc(Cl)cc1Cl)c1ccsc1I [Compound I-1],–,–,pest or weed control at 500 ppm [3]: ≥ 50%; pest or weed control at 500 ppm [1]: ≥ 70%
Cc1occc1C(=O)NCCc1ccc(Cl)cc1Cl [Compound C-1],–,–,pest or weed control at 500 ppm [3]: ≥ 50%
Cn1cc(C(=O)NCCc2c(Cl)cccc2Cl)c(C(F)F)n1 [Compound G-6],≥ 70%,≥ 70%,pest or weed control at 330 ppm [3]: ≥ 50%
COc1ccc(Br)cc1CCNC(=O)c1cn(C)nc1C(F)F [Compound G-10],≥ 70%,–,–
Cc1nc(C(F)F)c(C(=O)NCCc2ccc(Cl)cc2Cl)s1 [Compound D-12],–,–,pest or weed control at 500 ppm [3]: ≥ 50%
COc1cccc(CCNC(=O)c2cn(C)nc2C(F)F)c1OC [Compound G-3],≥ 70%,–,–
Cc1ccc(CCNC(=O)c2cn(C)nc2C(F)F)c(C)c1 [Compound G-5],≥ 70%,≥ 70%,pest or weed control at 330 ppm [3]: ≥ 50%
Cn1cc(C(=O)NCCc2c(Cl)cc(C(F)(F)F)cc2Cl)c(C(F)F)n1 [Compound G-11],–,≥ 70%,pest or weed control at 330 ppm [3]: ≥ 50%
Cn1cc(C(=O)NCCc2ccc(F)cc2F)c(C(F)F)n1 [Compound G-8],≥ 70%,≥ 70%,pest or weed control at 500 ppm [3]: ≥ 50%
Cn1cc(C(=O)NCCc2ccccc2Cl)c(C(F)F)n1 [Compound G-2],≥ 70%,≥ 70%,pest or weed control at 330 ppm [3]: ≥ 50%
Cc1ccc(CCNC(=O)c2cccnc2Cl)c(C)c1 [Compound E-9],≥ 70%,–,–
Cc1ccc(CCNC(=O)c2sc(C)nc2C(F)(F)F)c(C)c1 [Compound D-2],≥ 70%,–,–
Cc1ccccc1CCNC(=O)c1cn(C)nc1C(F)(F)F [Compound G-14],≥ 70%,–,–
Cc1ccc(C)c(CCNC(=O)c2cccnc2Cl)c1 [Compound E-1],≥ 70%,–,–
Cc1nc(N)sc1C(=O)NCCc1ccc(Cl)cc1Cl [Compound D-8],–,–,pest or weed control at 500 ppm ([2]; dose of 500 ppm): ≥ 70%; pest or weed control at 500 ppm [1]: ≥ 70%
Cn1cc(C(=O)NCCc2ccc(F)cc2F)c(C(F)(F)F)n1 [Compound G-20],–,≥ 70%,–
Cn1cc(C(=O)NCCc2ccc(C(F)(F)F)cc2Cl)c(C(F)(F)F)n1 [Compound G-15],≥ 70%,≥ 70%,–
Cc1nc(C(F)(F)F)c(C(=O)NCCc2ccccc2C)s1 [Compound D-6],–,≥ 70%,–
Cc1ccccc1CCNC(=O)c1cccnc1Cl [Compound E-2],≥ 70%,–,–
Cc1ccccc1CCNC(=O)c1cn(C)nc1C(F)F [Compound G-12],≥ 70%,–,–
